Experimental data from US20120258945A1, “Association Between Ferroquine and an Artemisinine Derivative for Treating Malaria” (priority 2005, published 2012).

Assays:
[1] = tested on: Plasmodium vinckei vinckei; experiment: Mortality / survival and curative dose in mice infected with Plasmodium vinckei vinckei; assay type: in vivo; conditions: oral, 4 days of treatment, compounds administered separately
Experimental: (§1) On the first day of treatment (D0), one hour after infection (10^7 parasitized erythrocytes suspended in a phosphate buffered saline (0.9%)), the animal is administered, orally, as appropriate, with ferroquine, with artesunate or with a mixture of the two active ingredients. This administration is repeated on the following three days (D1 to D3) (Peter, 1987). When the two products are administered in combination, the artesunate is administered first, the ferroquine is administered second, 45 minutes later. On the fourth day, a blood smear is taken from the tail of the mouse. The sample is fixed on a plate. The number of parasitized blood cells is counted under a microscope. The parasitaemia is expressed as percentage of infected erythrocytes present in the sample on a sample of 1000 cells. Six or seven mice are used per dose.
Each day, from day 5 after infection, the number of dead mice is counted so as to determine the percentage mortality (number of mice dead relative to the number of mice of the batch considered). The curative dose is the first dose at which all the mice of the batch survive.

[2] = tested on: Plasmodium vinckei vinckei; experiment: In vivo activity in mice infected with Plasmodium vinckei vinckei: parasitaemia at D4 after 4 days of oral treatment
Source text: Female “Swiss” mice, aged eight weeks and one day, are inoculated with parasites of Plasmodium vinckei vinckei type (Rodhain, 1952). The mice are acclimatized beforehand for two weeks. The mice are given food and drink ad libitum.
The Plasmodium vinckei vinckei strain is maintained by weekly infection in the mouse with 10^7 parasitized erythrocytes suspended in a phosphate buffered saline (0.9%).
as §1, with “This” for “On the first day of treatment (D0), one hour after infection (10^7 parasitized erythrocytes suspended in a phosphate buffered saline (0.9%)), the animal is administered, orally, as appropriate, with ferroquine, with artesunate or with a mixture of the two active ingredients. This”
The IC50 is defined as the concentration in mg/kg/day which inhibits the blood parasitaemia by 50% at the fourth day (D4) after infection (D0) and four days of treatment (D0,D1,D2,D3). 0% inhibition corresponds to the mean of the parasitaemias observed in the untreated infected mice. […]
The IC50 of ferroquine is determined after administration of concentrations of between 1 and 10 mg/kg/day. […]

`C[C@@H]1CC[C@H]2[C@@H](C)C(OC(=O)CCC(=O)[O-])O[C@@H]3O[C@]4(C)CC[C@@H]1C32OO4.[Na+]` (stereo partly drawn) [artesunate] was tested, and the “curative dose (first dose at which all the mice of the batch survive)” value [1] was “greater than 15 mg/kg/day”, the “IC50 (dose which inhibits the blood parasitaemia by 50% at D4)” value ([2]; 4 days of treatment (D0-D3), parasitaemia at D4, compounds administered separately, linear interpolation of dose-response curve) was 2.79 mg/kg/day and the “Parasitaemia (as %), mean” value ([2]; artesunate 6 mg/kg/day alone (ferroquine 0), 4 days, infected erythrocytes at fourth day after infection) was 7.1%.
